Measurements published in the supplement of paper PMC10307832.

Key:
Assay in all cases: relative viability (nuclei count vs DMSO), 5 days (fraction); higher = more cells survive
[1] = compound: COc1cc2nc(N3CCCN(C)CC3)nc(NC3CCN(Cc4ccccc4)CC3)c2cc1OC + COc1cccc2cc(-c3nc([C@H]4CC[C@H](C(=O)O)CC4)n4ncnc(N)c34)[nH]c12 [OSI-027] (partner 0.5 µM)
Method in brief: (§1)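 Relative viability divides the nuclei count in treated wells by that in vehicle wells. Lung cancer cell lines were seeded in 1536-well plates, dosed by pin tool the next day, and fixed and stained after 5 days in one step with final 0.05% Triton X-100, 1% formaldehyde and 1 ug/ml Hoechst. Dosing was a single drug or a fixed anchor-drug dose plus five library-drug doses (not always all listed) in √10 steps, and values are medians of duplicate plates imaged at 4×.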

[2] = compound: COc1cc2nc(N3CCCN(C)CC3)nc(NC3CCN(Cc4ccccc4)CC3)c2cc1OC + C[C@]1(O)C[C@@H](c2nc(-c3ccc4ccc(-c5ccccc5)nc4c3)c3c(N)nccn32)C1 [Linsitinib] (partner 1 µM)
Method in brief: as §1

[3] = compound: COc1cc2nc(N3CCCN(C)CC3)nc(NC3CCN(Cc4ccccc4)CC3)c2cc1OC + CS(=O)(=O)N1CCN(Cc2cc3nc(-c4cccc5[nH]ncc45)nc(N4CCOCC4)c3s2)CC1 [Pictilisib] (partner 1 µM)
Method in brief: as §1

[4] = compound: COc1cc2nc(N3CCCN(C)CC3)nc(NC3CCN(Cc4ccccc4)CC3)c2cc1OC + C[C@@H](Oc1cc(-c2cnn(C3CCNCC3)c2)cnc1N)c1c(Cl)ccc(F)c1Cl [Crizotinib] (partner 1 µM)
Method in brief: as §1

[5] = compound: COc1cc2nc(N3CCCN(C)CC3)nc(NC3CCN(Cc4ccccc4)CC3)c2cc1OC + Cc1cc(Nc2cc(N3CCN(C)CC3)nc(Sc3ccc(NC(=O)C4CC4)cc3)n2)n[nH]1 [Tozasertib] (partner 0.1 µM)
Method in brief: as §1

| Cell Line | relative viability ([1]; first compound 0.2 µM) | relative viability ([1]; first compound 0.6325 µM) | relative viability ([1]; first compound 2 µM) | relative viability ([1]; first compound 6.325 µM) | relative viability ([2]; first compound 0.2 µM) | relative viability ([2]; first compound 0.6325 µM) | relative viability ([2]; first compound 2 µM) | relative viability ([2]; first compound 6.325 µM) | relative viability ([3]; first compound 0.2 µM) | relative viability ([3]; first compound 0.6325 µM) | relative viability ([3]; first compound 2 µM) | relative viability ([3]; first compound 6.325 µM) | relative viability ([4]; first compound 0.2 µM) | relative viability ([4]; first compound 0.6325 µM) | relative viability ([4]; first compound 2 µM) | relative viability ([4]; first compound 6.325 µM) | relative viability ([5]; first compound 0.2 µM) | relative viability ([5]; first compound 0.6325 µM) | relative viability ([5]; first compound 2 µM) | relative viability ([5]; first compound 6.325 µM) |
| --- | --- | --- | --- | --- | --- | --- | --- | --- | --- | --- | --- | --- | --- | --- | --- | --- | --- | --- | --- | --- |
| 201T | 0.706 | 0.811 | 0.73 | 0.601 | 1.06 | 1.03 | 1.04 | 1 | 0.742 | 0.717 | 0.64 | 0.683 | 0.995 | 1.1 | 1.04 | 0.995 | 0.973 | 0.908 | 0.946 | 0.924 |
| A549 | – | – | – | – | 0.648 | 0.549 | 0.713 | 0.684 | 0.551 | 0.569 | 0.622 | 0.473 | 0.803 | 0.638 | 0.966 | 0.736 | – | – | – | – |
| A-427 | 0.487 | 0.55 | 0.442 | 0.386 | 1.13 | 1.06 | 1.13 | 1.18 | 0.755 | 0.728 | 0.679 | 0.675 | 0.861 | 0.781 | 1.04 | 0.838 | 0.188 | 0.221 | 0.238 | 0.279 |
| ABC-1 | 0.479 | 0.583 | 0.444 | 0.336 | 0.815 | 0.66 | 0.871 | 0.936 | 0.618 | 0.926 | 0.699 | 0.611 | 1.01 | 1.01 | 1.05 | 1.15 | 0.197 | 0.211 | 0.201 | 0.297 |
| BEN | 0.317 | 0.28 | 0.288 | 0.244 | 0.914 | 0.949 | 1.04 | 1.01 | 0.571 | 0.643 | 0.69 | 0.572 | 0.923 | 0.892 | 0.944 | 0.963 | 0.532 | 0.47 | 0.576 | 0.525 |
| CAL-12T | 0.516 | 0.718 | 0.76 | 0.479 | 0.745 | 0.829 | 0.944 | 0.726 | 0.402 | 0.53 | 0.388 | 0.34 | 0.529 | 0.464 | 0.753 | 0.477 | 0.363 | 0.381 | 0.365 | 0.323 |
| COR-L23 | 0.882 | 0.735 | 0.802 | 0.765 | 0.966 | 1.02 | 1.05 | 1 | 0.843 | 0.701 | 0.931 | 0.772 | 0.471 | 0.562 | 0.711 | 0.673 | 0.24 | 0.195 | 0.319 | 0.457 |
| COR-L 105 | 0.534 | 0.882 | 0.487 | 0.554 | 1.09 | 0.888 | 0.833 | 0.628 | 0.349 | 0.435 | 0.34 | 0.327 | 0.653 | 0.872 | 0.878 | 0.455 | 0.412 | 0.429 | 0.385 | 0.353 |
| Calu-6 | – | – | – | – | 0.881 | 0.903 | 1.02 | 0.962 | 0.924 | 0.978 | 0.953 | 0.743 | 0.75 | 0.676 | 0.814 | 0.67 | – | – | – | – |
| ChaGo-K-1 | 0.572 | 0.604 | 0.564 | 0.501 | – | – | – | – | 0.752 | 0.87 | 1.12 | 0.49 | 1.18 | 1.11 | 1.14 | 1.09 | 0.206 | 0.218 | 0.219 | 0.244 |
| EBC-1 | – | – | – | – | 0.887 | 0.879 | 1.09 | 0.753 | 0.337 | 0.392 | 0.248 | 0.132 | 0.241 | 0.181 | 0.147 | 0.177 | – | – | – | – |
| EKVX | 0.755 | 0.662 | 0.736 | 0.666 | 0.986 | 0.922 | 1.07 | 0.891 | 0.466 | 0.46 | 0.357 | 0.4 | 1.08 | 0.887 | 1.05 | 0.9 | 0.41 | 0.34 | 0.476 | 0.542 |
| EMC-BAC-2 | 0.361 | 0.353 | 0.39 | 0.397 | 0.799 | 0.815 | 0.903 | 0.787 | 0.559 | 0.555 | 0.564 | 0.57 | 0.729 | 0.747 | 0.843 | 0.824 | 0.264 | 0.258 | 0.32 | 0.317 |
| EPLC-272H | 0.358 | 0.32 | 0.316 | 0.205 | 1.25 | 1.22 | 1.02 | 1.1 | 0.314 | 0.439 | 0.303 | 0.305 | 0.811 | 0.915 | 1.05 | 0.785 | 0.247 | 0.269 | 0.344 | 0.29 |
| H3255 | 0.513 | 0.534 | 0.587 | 0.692 | 0.983 | 0.992 | 1.04 | 0.998 | 0.487 | 0.397 | 0.529 | 0.422 | 0.781 | 0.894 | 1.03 | 0.856 | 0.604 | 0.851 | 0.641 | 0.742 |
| HARA | 0.535 | 0.483 | 0.454 | 0.398 | 0.798 | 0.889 | 1 | 0.948 | 0.395 | 0.53 | 0.453 | 0.308 | 1.01 | 1.02 | 1.18 | 1.13 | 0.123 | 0.125 | 0.0997 | 0.236 |
| HCC-15 | 0.696 | 0.712 | 0.619 | 0.377 | 0.895 | 0.903 | 0.95 | 0.734 | 0.744 | 0.883 | 0.701 | 0.618 | 0.817 | 0.82 | 0.823 | 0.711 | 0.477 | 0.378 | 0.557 | 0.368 |
